In patent US6710066B2, “Photochemotherapeutic method using 5-aminolevulinic acid and other precursors of endogenous porphyrins” (priority 1989, dated 2004):
Like-named read-outs stand apart in the source and are kept apart here.

Tests used:
P. chabaudi [1] = assay: In vitro photosensitization of P. chabaudi, cells of infected mice incubated with ALA; format: cell-based, mouse
P. yoelii [2] = assay: In vitro incubation of blood, spleen or marrow cells from P. yoelii infected mice with ALA; format: cell-based, mouse
Method: For the in vitro studies, no ALA was given to the donor mice. Two drops of whole blood were withdrawn from the tail of each mouse and placed in a 35 mm petri dish containing 3 cc of RPMI 1640 without phenol red.
i) a petri dish contained infected whole blood with […] ALA in RPMI.
ii) a second petri dish contained infected whole blood plus RPMI but not ALA.
iii) a third petri dish contained normal whole blood cells with 5 mM ALA in RPMI.
iv) a fourth petri dish contained normal whole blood cells with RPMI but not ALA.
All petri dishes were incubated at 37 Celsius and room air environment. Samples (0.5 cc) were taken at regular intervals from these incubated petri dishes to be analyzed in the flow cytometer to follow accumulation of PpIX.

[3] = test system: endometrium and myometrium; assay: Endometrial fluorescence in vivo following topical application of ALA in the non-human primate; set-up: species or system rhesus monkey; conditions: 50 mg ALA into uterine lumen, hysterectomy 3 hours later
Method: 50 mg of ALA was injected into the uterine lumen of an adult, healthy, female rhesus monkey following exposure of the uterus at laparotomy. A hysterectomy was performed 3 hours later and cross sectional slices incorporating endometrial and myometrial tissue were taken from the uterine specimen. These slices were subjected to examination by fluorescence microscopy as in Example 2 and 3 above.

[4] = test system: Candida albicans, Candida glabrata, Cryptococcus neoformans, Penicillium species, Aspergillus niger, Aspergillus fumigatus, Alternaria species, Saccharomyces …; assay: In vitro PpIX fluorescence of yeast and fungi treated with ALA; format: cell-based; conditions: ALA 1 mM to 100 mM or 20-80% solutions in water
Method: Clinical isolates of Candida albicans, Candida glabrata, and Cryptococcus neoformans and environmental isolates of Penicillium species, Aspergillus niger, Aspergillus fumigatus, and Alternaria species and Saccharomyces cerivisiae (brewer's yeast) obtained from the clinical microbiology laboratories of Kingston General Hospital, Kingston, Ontario, Canada were used. The organisms were plated, and during rapid growth were treated with various concentrations of ALA varying from 1 mM to 100 mM by flooding or by using diffusion wells in the agar, while the isolates of Penicillium and Aspergillus were treated with 40% or 80% solutions of ALA in water and the Penicillium species, Alternaria species, Aspergillus niger and Aspergillus fumigatus were treated with 20% ALA in water via diffusion wells.

[5] = very large doses; cited from earlier work
P. yoelii [6] = assay: ALA-induced fluorescence within erythrocytes parasitized by P. yoelii, mice given ALA
P. chabaudi [7] = test system: P. chabaudi
Text: These examples involve the murine malarial parasites Plasmodium yoelii (lethal strain) and Plasmodium chabaudi (non-lethal strain) as models for human malaria.

[8] = test system: Enterobius vennicularis (pinworm); assay: PpIX accumulation on exposure to exogenous ALA, pinworm; conditions: exposed to exogenous ALA
[9] = test system: Lumbricus terrestris (dewworm); assay: PpIX accumulation on exposure to exogenous ALA, dewworm; conditions: exposed to exogenous ALA
[10] = cited from earlier work
C. albicans lesions = assay: PpIX fluorescence of intradermal C. albicans lesions in hairless mice given ALA; format: in vivo, mouse; conditions: 240 mg/kg ALA intraperitoneal, 3 hours
Method: The procedure of Giger et al. Infection and Immunity 19 (2) 499-509 (February 1978) was used with the following modifications. A clinical specimen of C. albicans was replated in blood agar so it was actively growing and left at room temperature for 72 hours. The sample was suspended in TSB to McFarland 0.5 turbidity after which a 1.0 ml sample was inoculated into an aerobic culture bottle and left shaking for 24 hours on a 37° C. rotor shaker. A 10 ml sample was withdrawn and centrifuged at […] for 10 minutes to separate the cells from the media. The supernate was discarded and the pellet resuspended in 10 ml of TSB. Serial dilusions (10^−1 to 10^−5) were made in and replicated twice on agar and left to incubate for two days at 37° C. […]
Three hours prior to their sacrifice, the mice were given 240 mg/kg ALA (10 mg/ml) by intraperitoneal injection, with the exception of mouse #3 which was used as a control. Fluorescence emission spectra on the live mice were taken every 15 minutes (mouse #1 readings every 20 minutes) for 3 hours after injection on each lesion, and at various control areas of the mice—neck skin flap and lateral side opposite the lesion on mouse 5. […] The frozen lesions were sectioned and slides were prepared for spectral analysis or fluorescence microscopy, H and E staining for histology, and Grocott silver stains for fungi identification.

P. yoelii [11] = test system: P. yoelii
Text: (A) Infectivity Assay: Mice infected with P. yoelii were given a standard dose of ALA by intraperitoneal injection. Peripheral blood and/or spleen cells were collected after a standard interval, exposed to standard doses of photoactivating light (including a no-light control) and then injected into normal mice.
Four hours later, its spleen cells were suspended in isotonic saline. Half of the spleen cell suspension was placed on ice and ekxposed to photoactivating light (waveband 600-700 nm, intensity […], total dose 540 J/cm^2), while the other half was kept on ice in the dark. Balb/c mice were injected intraperitoneally with either the light treated or untreated sample. Survival of the mice was followed for 90 days. FIG. 1 illustrates the duration of survival of individual mice following the injection of spleen cells infected with P. yoelii.

L. donovani = assay: PpIX accumulation on exposure to exogenous ALA, Leishmania; conditions: exposed to exogenous ALA
[12] = cells incubated with ALA in vitro
[13] = 250 mg/kg ALA intraperitoneal, heavily parasitized mice
[14] = ALA injected into infected mice
[15] = exposed to exogenous ALA, Example 10 list
[16] = ALA by intraperitoneal injection
[17] = ALA in vivo, then photoactivating light

For `NCC(=O)CCC(=O)O` [ALA, 5-Amino-4-oxopentanoic acid], the “PpIX accumulation in non-infected erythrocytes and leukocytes” value (P. chabaudi [1]) was “significant concentrations of PpIX did not accumulate”, the “PpIX accumulation in plasmodia within erythrocytes” value (P. chabaudi [1]) was “accumulated within many of the plasmodia” and the “PpIX fluorescence of whole blood incubated with ALA, flow cytometer” value (P. yoelii [2]; ALA in RPMI 1640 (5 nM infected, 5 mM normal blood as printed), 37 Celsius) was “Only cells from infected mice developed PpIX fluorescence when incubated with ALA”. For the same compound, the “PpIX accumulation in non-infected erythrocytes and leukocytes” value (P. yoelii [2]; [12]) was “significant concentrations of PpIX did not accumulate”, the “PpIX accumulation in plasmodia within erythrocytes” value (P. yoelii [2]; [12]) was “accumulated within many of the plasmodia” and the fluorescence in endometrium [3] was “Fluorescence was observed throughout the endometrium of all slices”. The fluorescence in myometrium [3] was “No fluorescence was observed”, the “PpIX accumulation in molds and yeasts” value [4] was “Positive PpIX accumulation” and the “effect on motor nerve conduction velocity” value [5] was “transient decrease in motor nerve conduction velocity”. The “protoporphyrin fluorescence of pellet and supernatant after saponin hemolysis” value (P. yoelii [6]; 250 mg/kg ALA IP, 4 hours, excitation 410 nm, emission 635 nm) was “Protoporphyrin fluorescence was detected only in Plasmodial pellet derived from infected mice given ALA”, the “fluorescence microscopy of blood/spleen cells” value (P. yoelii [6]; 250 mg/kg ALA intraperitoneal) was “Red fluorescence developed within parasitized erythrocytes” and the “fluorescence flow cytometry of peripheral blood and spleen erythrocytes” value (P. yoelii [6]; [13]) was “developed red fluorescence”. The “spectrophotofluorometry of blood and spleen cell pellets” value (P. yoelii [6]; [13]) was “Protoporphyrin was the only fluorophore that was identified”, the “erythrocyte fluorescence by flow cytometer (accumulation of PpIX)” value (P. yoelii [6]; 250 mg/kg ALA intraperitoneal, tail blood at intervals) was “Only infected mice given ALA developed fluorescence in their erythrocytes” and the “PpIX accumulation in non-infected erythrocytes and leukocytes” value (P. yoelii [6]; [14]) was “significant concentrations of PpIX did not accumulate”. The “PpIX accumulation in plasmodia within erythrocytes” value (P. yoelii [6]; [14]) was “accumulated in many of the plasmodia”, the “accumulation of fluorescing concentrations of PpIX” value (P. yoelii [6]; [15]) was “ALA-induced fluorescence” and the “PpIX accumulation in non-infected erythrocytes and leukocytes” value (P. chabaudi [7]; [16]) was “significant concentrations of PpIX did not accumulate”. The “PpIX accumulation in plasmodia within erythrocytes” value (P. chabaudi [7]; [16]) was “accumulated in many of the plasmodia”, the “ability of plasmodia to accumulate calcein from calcein-AM” value (P. chabaudi [7]; [17]) was “lost their normal ability to accumulate calcein” and the “ability of plasmodia to cause malaria in recipient mice” value (P. chabaudi [7]; [17]) was “lost their ability to cause malaria when injected into recipient mice”. For the same compound, the “accumulation of fluorescing concentrations of PpIX” value (P. chabaudi [7]; [15]) was “ALA-induced fluorescence”, the “accumulation of photosensitizing concentrations of PpIX” value (P. chabaudi [7]; [15]) was “ALA-induced photosensitization” and the “damage to non-infected erythrocytes and leukocytes” value (P. chabaudi [7]; mouse, in vivo) was “showed no morphological evidence of damage”. For the same compound, the “accumulation of fluorescing concentrations of PpIX” value [8] was “ALA-induced fluorescence”, the “accumulation of photosensitizing concentrations of PpIX” value [8] was “ALA-induced photosensitization” and the “accumulation of fluorescing concentrations of PpIX” value [9] was “ALA-induced fluorescence”. For the same compound, the “accumulation of photosensitizing concentrations of PpIX” value [9] was “ALA-induced photosensitization”, the solubility in water [10] was “water soluble” and the “PpIX accumulation in primary and secondary lesions” value (C. albicans lesions) was “increased PpIX accumulation relative to the control mice”. For the same compound, the “ability of plasmodia to accumulate calcein from calcein-AM” value (P. yoelii [11]; [17]) was “lost their normal ability to accumulate calcein”, the “ability of plasmodia to cause malaria in recipient mice” value (P. yoelii [11]; [17]) was “lost their ability to cause malaria when injected into recipient mice” and the “survival of recipients of infected spleen cells” value (P. yoelii [11]; donor 250 mg/kg ALA, cells exposed to photoactivating light 600-700 nm, 540 J/cm^2) was “remained in good health for 90 days”. The “average survival of recipients of infected spleen cells” value (P. yoelii [11]; donor 250 mg/kg ALA, cells kept in the dark) was 15 days, the “accumulation of photosensitizing concentrations of PpIX” value (P. yoelii [11]; [15]) was “ALA-induced photosensitization” and the “accumulation of fluorescing concentrations of PpIX” value (L. donovani) was “ALA-induced fluorescence”.
